# Literature values as cited in patent publication US20070142399A1, “Dual function drugs and uses thereof” (Psychiatric Genomics, Inc., priority 2003, published 2007).
# Columns and labels:
# D1 receptor = D1 receptor (Homo sapiens, UniProt P21728)
# D2 receptor = D2 receptor (Homo sapiens, UniProt P14416)
# Chain of D2 receptor (P14416 whole entry): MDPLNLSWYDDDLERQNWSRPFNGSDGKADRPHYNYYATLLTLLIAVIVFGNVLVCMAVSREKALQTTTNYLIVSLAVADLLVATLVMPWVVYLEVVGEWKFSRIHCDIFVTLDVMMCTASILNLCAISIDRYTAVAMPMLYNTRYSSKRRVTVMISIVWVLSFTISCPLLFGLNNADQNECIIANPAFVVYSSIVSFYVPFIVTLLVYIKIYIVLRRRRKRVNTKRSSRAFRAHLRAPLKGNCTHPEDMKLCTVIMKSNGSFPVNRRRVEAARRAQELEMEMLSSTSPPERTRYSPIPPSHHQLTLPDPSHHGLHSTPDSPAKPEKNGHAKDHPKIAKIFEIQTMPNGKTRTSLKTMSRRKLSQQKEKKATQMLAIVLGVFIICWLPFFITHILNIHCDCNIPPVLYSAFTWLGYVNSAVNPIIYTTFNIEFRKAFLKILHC
# Chain of D1 receptor (P21728 whole entry): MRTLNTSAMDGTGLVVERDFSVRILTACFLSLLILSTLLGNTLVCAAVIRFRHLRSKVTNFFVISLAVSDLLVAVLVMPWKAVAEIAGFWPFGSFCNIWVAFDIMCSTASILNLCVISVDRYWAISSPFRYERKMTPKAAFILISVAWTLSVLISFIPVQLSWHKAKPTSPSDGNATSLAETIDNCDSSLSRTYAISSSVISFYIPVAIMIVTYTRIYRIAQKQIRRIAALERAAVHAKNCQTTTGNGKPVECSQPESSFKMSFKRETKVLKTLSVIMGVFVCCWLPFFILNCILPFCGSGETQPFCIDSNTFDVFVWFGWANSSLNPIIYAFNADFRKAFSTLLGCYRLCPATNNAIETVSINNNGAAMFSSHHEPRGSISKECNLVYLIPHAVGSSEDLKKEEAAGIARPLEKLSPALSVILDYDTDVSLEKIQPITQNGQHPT
compound,measurement,setting,value
Oc1cc2c(cc1O)CC(NCc1ccccc1)CC2 (centres unmarked) [compound 80],potency at the D1 receptor as an agonist,D1 receptor,not potent enough
same,D2 agonist activity,D2 receptor,residual partial D2 agonist activity
